In patent US9567339B2, “Primary carboxamides as BTK inhibitors” (AbbVie Inc., priority 2013, dated 2017):
Read-outs that look alike come from different tables or passages of the source.

Molecular target: BTK, recombinant human catalytic domain (aa 393-659) (Homo sapiens (Human), UniProt Q06187)
Test: In vitro BTK kinase activity measured by time-resolved fluorescence resonance energy transfer (trFRET)
Assay type: biochemical
Details: read-out: Btk IC50
[1] = trFRET, 0.001 mM ATP, biotin-TYR1 peptide substrate

Sequence of BTK, recombinant human catalytic domain (aa 393-659) (Q06187 393-659): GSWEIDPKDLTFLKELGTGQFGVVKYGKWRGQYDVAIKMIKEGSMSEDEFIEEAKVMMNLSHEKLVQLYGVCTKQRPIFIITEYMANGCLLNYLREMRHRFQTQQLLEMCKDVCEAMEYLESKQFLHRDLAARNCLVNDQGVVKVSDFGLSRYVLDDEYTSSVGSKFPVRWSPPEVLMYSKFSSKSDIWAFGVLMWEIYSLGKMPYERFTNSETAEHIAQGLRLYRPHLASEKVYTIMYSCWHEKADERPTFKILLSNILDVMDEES

Cc1ccc(NC(=O)c2nccs2)cc1-c1ccc(C(N)=O)c2[nH]c(-c3cccnc3)cc12 [A.7.7]
IC50 [1]: 1000 to 10000 nM

C=CC(=O)Nc1cccc(-c2ncc(C(N)=O)c3[nH]ccc23)c1C [E.1.9]
IC50: < 100 nM

Cc1c(NCc2nccs2)cccc1-c1ccc(C(N)=O)c2[nH]c(C3=CCN(S(C)(=O)=O)CC3)cc12 [H.2.1, 4-(2-methyl-3-(thiazol-2-ylmethylamino)phenyl)-2-(1-(methylsulfonyl)-1,2,3,6-tetrahydropyridin-4-yl)-1H-indole-7-carboxamide]
IC50: < 100 nM

C=CC(=O)N1CCC[C@H](c2cnc(C(N)=O)c3[nH]ccc23)C1 [E.9.52]
IC50: 100 to 1000 nM

C=CC(=O)N1CC([C@H](C)c2ncc(C(N)=O)c3[nH]ccc23)C1 [E.9.29]
IC50: 100 to 1000 nM

CNC(=O)/C=C/C(=O)Nc1cccc(-c2ccc(C(N)=O)c3[nH]ccc23)c1 [D.4.1]
IC50 [1]: 1000 to 10000 nM

C=CC(=O)N1CC(N(C)c2cnc(C(N)=O)c3[nH]ccc23)C1 [Example 29, 4-((1-Acryloylazetidin-3-yl)(methyl)amino)-1H-pyrrolo[2,3-c]pyridine-7-carboxamide]
IC50 [1]: < 100 nM

C=CC(=O)N1CCC[C@H](c2cnc(C(N)=O)c3sc(-c4cnn(C)c4)nc23)C1 [E.9.36]
IC50: < 100 nM

Cc1c(-c2ccc(C(N)=O)c3[nH]c(-c4cnn(CCO)c4)cc23)cccc1-n1cnc2ccccc2c1=O [M.1.2]
IC50: < 100 nM

CCC(=O)N1CC[C@@H](c2ccc(C(N)=O)c3[nH]c(C)cc23)C1 [E.10.2]
IC50: 100 to 1000 nM
